Consider 1 molecule from ChEMBL document CHEMBL6177992, “A First-in-Class Hepatocyte Nuclear Factor 4 Agonist” (J Med Chem, 2025).

In data set [1] the target is T1, Nuclear receptor subfamily 1 group I member 2 (Homo sapiens, UniProt O75469).
T1 sequence (O75469 whole entry): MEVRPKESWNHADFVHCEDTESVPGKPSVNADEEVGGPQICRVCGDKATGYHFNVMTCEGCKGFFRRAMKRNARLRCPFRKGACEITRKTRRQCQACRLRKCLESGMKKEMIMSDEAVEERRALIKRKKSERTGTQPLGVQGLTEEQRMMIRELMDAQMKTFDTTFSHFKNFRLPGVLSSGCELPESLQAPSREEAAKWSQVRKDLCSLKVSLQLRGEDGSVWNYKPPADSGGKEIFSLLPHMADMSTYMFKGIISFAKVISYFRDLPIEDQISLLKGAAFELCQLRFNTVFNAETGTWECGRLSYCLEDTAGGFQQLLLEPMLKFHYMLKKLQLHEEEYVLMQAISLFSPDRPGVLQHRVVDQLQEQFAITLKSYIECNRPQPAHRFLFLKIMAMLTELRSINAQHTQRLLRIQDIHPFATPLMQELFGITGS
Description: Agonist activity at human Gal4-PXR-LBD expressed in HEK293T cells transfected with pFR-Luc/pRLSV40 assessed as relative luminescence at 1 uM measured after 14 to 16 hrs by hybrid reporter gene assay. In kind it is cell-based. The following applies: time 14-16 hrs. On the technique in general: A reporter such as luciferase makes a cellular process visible.

Data set [2] has as its target T2, CAR (nuclear receptor subfamily 1 group I member 3) (Homo sapiens, UniProt Q14994).
T2 sequence (Q14994 whole entry): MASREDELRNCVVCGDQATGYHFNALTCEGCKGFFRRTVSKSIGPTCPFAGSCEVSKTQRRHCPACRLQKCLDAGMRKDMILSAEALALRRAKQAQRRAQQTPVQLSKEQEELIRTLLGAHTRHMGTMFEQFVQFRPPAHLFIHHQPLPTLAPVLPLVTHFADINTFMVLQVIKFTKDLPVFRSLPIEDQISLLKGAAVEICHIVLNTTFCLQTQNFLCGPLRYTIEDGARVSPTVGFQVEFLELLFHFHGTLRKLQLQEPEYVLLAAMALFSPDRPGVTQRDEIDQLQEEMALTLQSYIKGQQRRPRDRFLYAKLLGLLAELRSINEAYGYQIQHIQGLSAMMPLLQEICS
Description: Agonist activity at human Gal4-CARalpha-LBD expressed in HEK293T cells transfected with pFR-Luc/pRLSV40 assessed as relative luminescence at 1 uM measured after 14 to 16 hrs by hybrid reporter gene assay. In kind it is cell-based. As to conditions: time 14-16 hrs, read-out: Activity.

For the molecule `Cc1ccc(C#Cc2ccc(O)c(C(=O)O)c2)c(Cl)c1`, the Activity in data set [1] is given as less than 20%. In addition, the activity at 1 µM in data set [2] was less than 20%.
